Experimental data: ChEMBL document CHEMBL1137118, “Definition of the heterocyclic pharmacophore of bacterial methionyl tRNA synthetase inhibitors: potent antibacterially active non-quinolone analogues” (Bioorg Med Chem Lett, 2004)
In brackets after ≈: the same amount, converted by molar mass.

Assays:
[1] = system: Staphylococcus aureus; experiment: Antibacterial activity against Staphylococcus aureus Oxford; format: functional
[2] = target: Methionine--tRNA ligase (Staphylococcus aureus subsp. aureus MW2, UniProt Q8NY00); experiment: Inhibitory concentration against Staphylococcus aureus methionyl tRNA synthetase
[3] = system: Enterococcus faecalis; experiment: Antibacterial activity against Enterococcus faecalis 1; format: functional
[4] = system: Staphylococcus aureus; experiment: Concentration required to inhibit 90% population of Staphylococcus aureus; format: functional
[5] = system: Staphylococcus epidermidis; experiment: Concentration required to inhibit 90% population of Staphylococcus epidermidis; format: functional
[6] = system: Enterococcus faecalis; experiment: Concentration required to inhibit 90% population of Enterococcus faecalis; format: functional
[7] = system: Enterococcus faecium; experiment: Concentration required to inhibit 90% population of Enterococcus faecium; format: functional

Methionine--tRNA ligase, sequence (Q8NY00 whole entry): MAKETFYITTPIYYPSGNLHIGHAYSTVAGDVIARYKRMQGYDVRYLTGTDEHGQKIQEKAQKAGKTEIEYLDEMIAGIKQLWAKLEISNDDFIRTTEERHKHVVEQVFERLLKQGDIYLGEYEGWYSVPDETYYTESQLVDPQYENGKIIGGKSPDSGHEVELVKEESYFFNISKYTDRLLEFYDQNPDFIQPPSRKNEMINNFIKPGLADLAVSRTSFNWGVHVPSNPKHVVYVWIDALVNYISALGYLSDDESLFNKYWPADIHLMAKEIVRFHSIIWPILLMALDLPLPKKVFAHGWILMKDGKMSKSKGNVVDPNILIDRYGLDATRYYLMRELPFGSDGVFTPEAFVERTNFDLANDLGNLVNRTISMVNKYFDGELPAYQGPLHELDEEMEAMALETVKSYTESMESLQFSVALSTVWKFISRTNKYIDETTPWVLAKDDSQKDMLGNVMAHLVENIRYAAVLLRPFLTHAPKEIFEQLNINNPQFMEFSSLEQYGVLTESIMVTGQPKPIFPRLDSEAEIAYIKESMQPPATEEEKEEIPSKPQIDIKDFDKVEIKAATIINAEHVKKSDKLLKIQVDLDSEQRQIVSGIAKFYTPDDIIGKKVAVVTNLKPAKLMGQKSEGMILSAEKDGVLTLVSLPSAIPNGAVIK

| SMILES | MIC [1] [µg/mL] | IC50 [2] [nM] | MIC [3] [µg/mL] | MIC90 [4] [µg/mL] | MIC90 [5] [µg/mL] | MIC90 [6] [µg/mL] | MIC90 [7] [µg/mL] |
| --- | --- | --- | --- | --- | --- | --- | --- |
| Oc1nc(NCCCNC2CCNc3c(Cl)cc(Br)cc32)nc2ccsc12 (centres undefined) | ≤ 0.06 | < 3 | ≤ 0.06 | – | – | – | – |
| Oc1nc(NCCCNCc2cc(Br)cc(Br)c2)nc2c1CCC2 | > 64 | 580 | > 64 | – | – | – | – |
| CCOc1c(Br)cc(Br)cc1CNCCCNc1nc2ccccc2[nH]1 | 1 (≈ 2.07 µM) | 17 | 0.25 (≈ 0.518 µM) | – | – | – | – |
| CCOc1c(Br)cc(OC)cc1CNCCCNc1nc(O)c2sccc2n1 | 0.25 (≈ 0.535 µM) | 3.3 | ≤ 0.06 | – | – | – | – |
| O=c1nc(NCCCNCc2cc(Br)cc(Br)c2)[nH]c2ccsc12 | 0.5 (≈ 1.06 µM) | 3.9 | ≤ 0.06 | – | – | – | – |
| Oc1nc(NCCCNCc2cc(Br)cc(Br)c2)nc2ccccc12 | 0.25 (≈ 0.536 µM) | 8.1 | ≤ 0.06 | – | – | – | – |
| Clc1cc(Cl)c(Cl)c(CNCCCNc2ccc3ccccc3n2)c1 | – | 100 | – | – | – | – | – |
| CCc1cc(I)c2c(c1)C(NCCCNc1nc3ccc[nH]c-3n1)CCN2 (centres undefined) | 0.25 (≈ 0.525 µM) | 18 | 1 (≈ 2.1 µM) | – | – | – | – |
| Oc1cc(NCCCNCc2cc(Cl)cc(Cl)c2Cl)nc2ccccc12 | – | < 3 | – | – | – | – | – |
| CCOc1c(Br)cc(Br)cc1CNCCCNc1nc(O)c2sccc2n1 | 0.13 (≈ 0.252 µM) | 4.9 | ≤ 0.06 | – | – | – | – |
| CCOc1c(Br)cc(OC)cc1CNCCCNc1nc2ccccc2[nH]1 | 1 (≈ 2.31 µM) | 17 | 0.13 (≈ 0.3 µM) | – | – | – | – |
| CCOc1c(Br)cc(Cl)cc1CNCCCNc1nc(O)c2sccc2n1 | 0.13 (≈ 0.276 µM) | < 3 | 0.13 (≈ 0.276 µM) | – | – | – | – |
| CCc1cc(I)c2c(c1)C(NCCCNc1nc(O)c3ccccc3n1)CCN2 (centres undefined) | ≤ 0.06 | 17 | 0.25 (≈ 0.497 µM) | – | – | – | – |
| CCOc1c(Br)cc(Br)cc1CNCCCNc1nc2ccccc2c(=O)[nH]1 | 0.13 (≈ 0.255 µM) | 9.7 | ≤ 0.06 | – | – | – | – |
| Oc1cc(SCCCNCc2ccc(Cl)c(Cl)c2)nc2ccccc12 | > 64 | 680 | – | – | – | – | – |
| Brc1cc(Br)cc(CNCCCNc2nc3ccccc3[nH]2)c1 | 1 (≈ 2.28 µM) | 29 | 0.13 (≈ 0.297 µM) | – | – | – | – |
| CCc1cc(I)c2c(c1)C(NCCCNc1nc(O)c3sccc3n1)CCN2 (centres undefined) | ≤ 0.06 | < 3 | 0.5 (≈ 0.982 µM) | – | – | – | – |
| Oc1cc(NCCCNCc2cc(Br)cc(Br)c2)nc2sccc12 | 0.25 (≈ 0.531 µM) | 6.2 | ≤ 0.06 | – | – | – | – |
| Oc1cc(-c2ccccc2)nc(NCCCNCc2cc(Br)cc(Br)c2)n1 | > 64 | > 1000 | > 64 | – | – | – | – |
| Brc1cc(Br)c2c(c1)C(NCCCNc1nc3ncccc3[nH]1)CCN2 (centres undefined) | ≤ 0.06 | 11 | ≤ 0.06 | 1 (≈ 2.08 µM) | 0.5 (≈ 1.04 µM) | 0.06 (≈ 0.125 µM) | 0.03 (≈ 0.0625 µM) |

| SMILES | MIC [1] [µg/mL] | IC50 [2] [nM] | MIC [3] [µg/mL] | MIC90 [4] [µg/mL] | MIC90 [5] [µg/mL] | MIC90 [6] [µg/mL] | MIC90 [7] [µg/mL] |
| --- | --- | --- | --- | --- | --- | --- | --- |
| Oc1cc(NCCCNCc2cc(Br)cc(Br)c2)nc2ccccc12 | 0.25 (≈ 0.537 µM) | < 3 | ≤ 0.06 | – | – | – | – |
| Oc1nc(NCCCNC2CCNc3c(Br)cc(Br)cc32)nc2ccsc12 (centres undefined) | ≤ 0.06 | 13 | ≤ 0.06 | – | – | – | – |
| CCOc1c(Cl)cc(Cl)cc1CNCCCNc1nc(O)c2ccccc2n1 | 0.13 (≈ 0.309 µM) | < 3 | ≤ 0.06 | – | – | – | – |
| Oc1nc(NCCCNC2CCNc3c(Cl)cc(Br)cc32)nc2ccccc12 (centres undefined) | ≤ 0.06 | 8.2 | ≤ 0.06 | – | – | – | – |
| Oc1cc(NCCCNCc2cc(Cl)cc(Cl)c2Cl)cc2ccccc12 | – | 1800 | – | – | – | – | – |
| CCOc1c(Br)cc(Cl)cc1CNCCCNc1nc(O)c2ccccc2n1 | 0.13 (≈ 0.279 µM) | < 3 | ≤ 0.06 | – | – | – | – |
| CCOc1c(Br)cc(Cl)cc1CNCCCNc1nc2ccccc2[nH]1 | 1 (≈ 2.28 µM) | 3.8 | 0.5 (≈ 1.14 µM) | – | – | – | – |
| CCOc1c(Cl)cc(Cl)cc1CNCCCNc1nc(O)c2sccc2n1 | 0.25 (≈ 0.585 µM) | < 3 | 0.13 (≈ 0.304 µM) | – | – | – | – |
| Brc1cc(Br)c2c(c1)[C@H](NCCCNc1nc3ncccc3[nH]1)CCN2 | ≤ 0.06 | 6.3 | ≤ 0.06 | – | – | – | – |
| Oc1cc(OCCCNCc2ccc(Cl)c(Cl)c2)nc2ccccc12 | 32 (≈ 84.8 µM) | 38 | – | – | – | – | – |
| O=C(NCCCNCc1cc(Br)cc(Br)c1)Nc1ccccc1 | > 64 | 330 | 8 (≈ 18.1 µM) | – | – | – | – |
| CCc1cc(I)c2c(c1)C(NCCCNc1nc3ccccc3[nH]1)CCN2 (centres undefined) | 0.5 (≈ 1.05 µM) | 16 | 1 (≈ 2.1 µM) | – | – | – | – |
| CCOc1c(Br)cc(OC)cc1CNCCCNc1nc(O)c2ccccc2n1 | 0.13 (≈ 0.282 µM) | 7 | ≤ 0.06 | – | – | – | – |
| N#Cc1c(NCCCNCc2cc(Br)cc(Br)c2)[nH]c2ccccc12 | 0.5 (≈ 1.08 µM) | 54 | 0.25 (≈ 0.541 µM) | – | – | – | – |
| Oc1cc(NCCCNCc2cc(Br)cc(Br)c2)nc2ccsc12 | 0.13 (≈ 0.276 µM) | 4 | ≤ 0.06 | – | – | – | – |
| CCOc1c(Cl)cc(Cl)cc1CNCCCNc1nc2ccccc2[nH]1 | 2 (≈ 5.08 µM) | < 3 | 0.5 (≈ 1.27 µM) | – | – | – | – |
| Brc1cc(Br)cc(CNCCCNc2nc3ccc[nH]c-3n2)c1 | 0.5 (≈ 1.14 µM) | 5 | 0.25 (≈ 0.569 µM) | – | – | – | – |
| Brc1cc(Br)c2c(c1)C(NCCCNc1nc3ccccc3[nH]1)CCN2 (centres undefined) | 0.25 (≈ 0.522 µM) | 13 | ≤ 0.06 | – | – | – | – |
| Oc1nc(NCCCNCc2cc(Br)cc(Br)c2)nc2sccc12 | > 64 | 150 | 32 (≈ 67.8 µM) | – | – | – | – |
| O=c1cc(NCCCNCc2cc(Cl)cc(Cl)c2Cl)oc2ccccc12 | – | 1000 | – | – | – | – | – |
